Patent US5958966A, “Treatment of aberrant cellular states with biomodulators” (University of New Mexico, priority 1995, dated 1999)
“Also recorded” adds a separate entry of the source.

Legend:
[1] = tested on: plaque forming cells (splenocytes); assay: effect of swainsonine on humoral immunity (PFC assay); type: in vivo, mouse; conditions: for PFC versus control in words: listed as Sw
Procedure: The plaque forming cell (PFC) assay was done according to the method developed by Jerne and Nordin (1963). The splenocytes were washed in serum-free RPMI-1640 and brought to a final concentration of 1×10^6 cell/100 μl. Sheep red blood cells (sRBC), from The Colorado Serum Company, were labelled with protein A from Staphylococcus aureus (Sigma). The sRBC's were washed 3 times with saline (0.85% NaCl), the packed cells were then incubated with 1 ml of protein A (0.5 mg/ml saline) and 10 ml of saline containing 0.1 μl of CrCl3 (35% solution) (Aldrich), for 20 minutes. The sRBC's were then washed 3 times with PBS and suspended in PBS to make a 30% solution. The sRBC's (50 μl) and splenocytes (100 μl) were combined with SeaPlaque agarose (FMC Corporation) and smeared on a 75 mm×50 mm microscope slide to form a lawn of target red blood cells with uniformly dispersed effector cells. Each sample was done in triplicate. The agarose was allowed to harden and the slides were placed in trays containing serum-free RPMI-1640. The trays were incubated at 37° C. in a CO2 incubator for 90 min. After incubation the slides were placed in slide holders containing normal saline for a wash step. The rabbit/anti-mouse antibody (DAKO Corporation) was diluted 1:400 with serum free RPMI-1640 and added to the slide trays. Following another 90 min. incubation at 37° C. in a CO2 incubator, the slides were again washed. Fresh frozen guinea pig complement (GIBCO) (2%) in serum-free RPMI-1640 was added to the slide trays and incubated for another 60 to 90 min. depending on the time necessary for plaque formation. The number of plaques were counted and the results reported as number of plaque forming cells per 1×10^6 splenocytes.
Mice were pretreated for 3 weeks with Sw (0.1 μg and 0.01 μg), and then received B16 cells. At 3 time points post tumor cell injection (day 0, 7 and 14), the mice were sacrificed and the spleens were removed. The cells were then used to determine the effect of Sw on humoral immunity. […] The presence of a day 7 tumor caused a return to baseline for all the groups. A significant difference (p=0.001) was seen on day 14 post tumor injection with the mice treated with 0.01 μg Sw.

[2] = tested on: canine glioma (CG) cells; assay: cell surface oligosaccharide display of canine glioma cells (lectin binding, Scatchard, Gibb's Free Energy); type: cell-based; conditions: control 14.9 kcal
From the text: Taken together these affinity differences account for almost 10 kcal of additional binding energy retrievable from interactions in the case of the IMR-90s which is unavailable to the CGs. […] This treatment regimen results in an increase in the Tg of the cells as well as changes in the proton linewidth of unfrozen water (shown below). […] This display more closely resembles that of the growth regulated IMR-90s. It should be noted that the actual lines on these figures are visual estimates however, the data in the boxes are calculated values. It is these values that are used to estimate the GFE for comparison purposes.
(§1) The cell surface oligosaccharide display was assessed by methods developed previously. In brief, cells from a sub-culturing were aliquotted into 96 well trays at 5×10^5 cells per ml, 100 μL aliquots. After 16 hours of culture the cells were washed, fixed, and blocked with 0.1% BSA/PBS. Optimal lectin concentrations (5 μg/ml)were used to give 80 to 90% saturation of the available sites. Three carbohydrate ligands at 10 μg concentrations in triplicate or quadruplicate were then used to prepare competition curves for the lectin binding. The Bound over Free (B/F) ratio was calculated and the Ligand microprocessor program was used to determine the optimal fit of the data to a polynomial generated model. The Gibb's Free Energy (GFE) was calculated from the Scatchard data on the competition assay by the following equation: GFE=-RT 1n Kequit. The proton NMR linewidth measurements were conducted as described previously.

[3] = tested on: lymphoid IL-2R / LAK; conditions: Bowlin et al. and further work; listed as Sw; cited from earlier work
[4] = tested on: canine glioma (CG) cells; assay: proton NMR T-2* linewidth of canine glioma cells; type: cell-based; parameters: T-2* linewidth / T-2* linewidth after treatment withdrawal / T-2* linewidth after t-butanol extraction: unit not given here; conditions: for T-2* linewidth after treatment withdrawal: 4 weeks treatment then 1 week without, mean ± SD of 3; for T-2* linewidth after t-butanol extraction: treated CG cells
Procedure: The cells used for all these experiments are between passage 30 and passage 75.
as §1, with “After 16 hours of culture the cells were washed, fixed, and blocked with 0.1% BSA/PBS.” left out

Structure (SMILES): O[C@H]1[C@H]2[C@H](O)CCCN2C[C@H]1O [Swainsonine, swainsonine]
- increase in plaque forming cells ([1]; 0.01 μg Sw, before tumor, p=0.001): 89%
- increase in PFC over mice without Sw with day 14 tumors ([1]; 0.01 μg Sw, day 14): 108%
- increase in PFC over mice without tumors or treatment ([1]; 0.01 μg Sw, day 14): 144%
- PFC versus control in words ([1]; 0.1 μg Sw without tumor (p=0.04)): not as significantly different from the control group; also recorded: significant changes in the formation of plaques prior to tumor exposure
- PFC versus control in words ([1]; 0.1 μg Sw, day 14 (p=0.13)): not a significant difference between the controls and these treated mice; also recorded: even higher levels
- Gibb's Free Energy ([2]; 2 cycles): 15.2 kcal
- Gibb's Free Energy ([2]; 4 cycles): 20.5 kcal
- Gibb's Free Energy ([2]; 7 cycles): 21.9 kcal
- effect on IL-2R expression, IL-2 induced proliferation and LAK induction [3]: augmented lymphoid IL-2R expression and IL-2 induced proliferation following mitogenic stimulation; also recorded: augmented the LAK induction at normally sub-optimal stimulation doses
- T-2* linewidth after treatment withdrawal ([4]; 213 k): 520 ± 26
- T-2* linewidth after treatment withdrawal ([4]; 223 k): 510 ± 18
- T-2* linewidth after treatment withdrawal ([4]; 233 k): 430 ± 15
- T-2* linewidth after treatment withdrawal ([4]; 243 k): 360 ± 10
- linewidth after withdrawal versus untreated control ([4]; 4 weeks treatment, 1 week withdrawal): still significantly different from control values
- linewidth change ([4]; CG cells, biomodulator treatment versus control, listed as Sw): significant (P>0.01) decreases in linewidth; also recorded: higher level of linewidth reduction than the PWM treatment
- T-2* linewidth ([4]; Four week of treatment, 213 k, mean ± SD of triplicate): 480 ± 35
- T-2* linewidth ([4]; Four week of treatment, 223 k, mean ± SD of triplicate): 330 ± 40
- T-2* linewidth ([4]; Four week of treatment, 233 k, mean ± SD of triplicate): 300 ± 8
- T-2* linewidth ([4]; Four week of treatment, 243 k, mean ± SD of triplicate): 230 ± 10
- T-2* linewidth ([4]; One week of treatment, 213 k): 580
- T-2* linewidth ([4]; One week of treatment, 223 k): 325
- T-2* linewidth ([4]; One week of treatment, 233 k): 285
- T-2* linewidth ([4]; One week of treatment, 243 k): 265
- T-2* linewidth after t-butanol extraction ([4]; 213 k, extracted control 367 ± 15): 316 ± 33
- T-2* linewidth after t-butanol extraction ([4]; 223 k, extracted control 337 ± 29): 271 ± 13
- T-2* linewidth after t-butanol extraction ([4]; 233 k, extracted control 299 ± 30): 243 ± 29
- T-2* linewidth after t-butanol extraction ([4]; 243 k, extracted control 229 ± 9): 194 ± 7
